Test results published in paper PMC10788917 (Journal of Medicinal Chemistry, 2023).
Substitutions are numbered along the chain they refer to.

What was measured:
Assay in all cases: HDAC8 mutant biochemical assay
[1] = target: T1, HDAC8 Cys102Ser/Cys153Ser/Cys131Ser (Homo sapiens, UniProt Q9BY41, C102S/C131S/C153S); details: read-out: IC50 [μM] @ 100 nM HDAC8: D Cys102Ser/Cys153Ser/Cys131Ser, 1 h preincubation
T1 construct: made in house
T1 sequence (Q9BY41 1-377 C102S/C131S/C153S): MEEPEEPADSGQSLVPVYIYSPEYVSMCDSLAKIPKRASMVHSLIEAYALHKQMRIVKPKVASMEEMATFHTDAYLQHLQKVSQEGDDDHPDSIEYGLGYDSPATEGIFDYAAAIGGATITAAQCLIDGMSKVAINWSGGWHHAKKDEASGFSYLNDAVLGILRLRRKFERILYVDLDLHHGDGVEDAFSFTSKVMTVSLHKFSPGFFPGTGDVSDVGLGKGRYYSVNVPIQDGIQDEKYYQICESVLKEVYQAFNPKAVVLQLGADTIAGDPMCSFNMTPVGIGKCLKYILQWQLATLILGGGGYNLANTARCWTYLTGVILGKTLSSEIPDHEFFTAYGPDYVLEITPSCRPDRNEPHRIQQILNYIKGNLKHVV
Method: (§1) HDAC8 mutant variants were generated, produced, and further purified as described previously.[32] Cysteines 28 and 314 were exchanged with serine using the following primer pairs: HD8_C28S_for, […]; HD8_C28S_rev, […]; HD8_C314S_for, […]; HD8_C314S_rev, […].
(§2) The enzyme activity assay was performed in assay buffer [25 mM Tris-HCl (pH 8.0), 50 mM NaCl, and 0.001% (v/v) Pluronic F-68] in black half-area 96-well microplates (Greiner Bio-One). For the initial screening, 10 nM HDAC8 was preincubated with the indicated compounds at 250 μM for 2 h at 30 °C. […] The reaction was initiated by the addition of 20 μM Boc-Lys(TFA)-AMC (Bachem). After substrate conversion at 30 °C for 15 min for HDAC8 and 1 h for HDAC8 mutants and HDAC4, the reaction was stopped by adding 1.67 μM suberoylanilide trifluoromethylketone (SATFMK). The deacetylated substrate was cleaved with 0.42 mg/mL trypsin to release fluorescent 7-amino-4-methylcoumarin (AMC), which was detected with a microplate reader (PHERAstar FS […]) with fluorescence excitation at 360 nm and emission at 460 nm. IC50 values were calculated by generating dose–response curves in GraphPad Prism 6 and fitting those to a four-parameter logistic model.

[2] = target: T2, HDAC8 Cys102Ser/Cys153Ser/Cys28Ser (Homo sapiens, UniProt Q9BY41, C102S/C153S/C28S); details: read-out: IC50 [μM] @ 100 nM HDAC8: B Cys102Ser/Cys153Ser/Cys28Ser, 1 h preincubation
T2 construct: made in house
T2 sequence (Q9BY41 1-377 C28S/C102S/C153S): T1 sequence (Q9BY41 1-377 C102S/C131S/C153S) with C28S, S131C
Method: as §1, §2

[3] = target: T3, HDAC8 Cys102Ser/Cys153Ser/Cys125Ser (Homo sapiens, UniProt Q9BY41, C102S/C125S/C153S); details: read-out: IC50 [μM] @ 100 nM HDAC8: C Cys102Ser/Cys153Ser/Cys125Ser, 1 h preincubation
T3 construct: made in house
T3 sequence (Q9BY41 1-377 C102S/C125S/C153S): T1 sequence (Q9BY41 1-377 C102S/C131S/C153S) with C125S, S131C
Method: as §1, §2

[4] = target: T4, HDAC8 Cys102Ser/Cys153Ser (Homo sapiens, UniProt Q9BY41, C102S/C153S); details: read-out: IC50 [μM] @ 100 nM HDAC8: A Cys102Ser/Cys153Ser, 1 h preincubation
T4 construct: made in house
T4 sequence (Q9BY41 1-377 C102S/C153S): T1 sequence (Q9BY41 1-377 C102S/C131S/C153S) with S131C
Method: as §1, §2

| IC50 [1] | IC50 [2] | IC50 [3] | IC50 [4] | SMILES |
| --- | --- | --- | --- | --- |
| 42 ± 4 µM | > 130 µM | 65 ± 6 µM | 59 ± 4 µM | C[n+]1ccccc1I [A3+] |
| 36 ± 8 µM | > 130 µM | 81 ± 4 µM | 68 ± 5 µM | C[n+]1ccc(I)cc1 [C3+] |
| 3.3 ± 0.3 µM | 67 ± 6 µM | 15 ± 1 µM | 14 ± 1 µM | C#Cc1cc[n+](C)cc1 [C6+] |
| 49 ± 6 µM | > 130 µM | 82 ± 4 µM | 60 ± 9 µM | C[n+]1cccnc1Cl [D1+] |
| 18 ± 4 µM | > 130 µM | 52 ± 7 µM | 23 ± 3 µM | C[n+]1cccnc1Br [D2+] |
| 8 ± 1 µM | 62 ± 3 µM | 14 ± 1 µM | 14 ± 1 µM | C[n+]1cccnc1I [D3+] |
| 93 ± 13 µM | > 130 µM | > 130 µM | > 130 µM | C#Cc1nccc[n+]1C [D6+] |
| 25 ± 2 µM | > 130 µM | 56 ± 5 µM | 29 ± 1 µM | C[n+]1cncc(Br)c1 [F2+] |
| 15 µM | > 130 µM | – | 16 ± 3 µM | C[n+]1cncc(I)c1 [F3+] |
| 55 ± 12 µM | 106 ± 10 µM | 126 ± 17 µM | 97 ± 34 µM | C#Cc1c[n+](C)ccn1 [G6+] |
